≈ marks a conversion by molar mass, not a printed value.
What was measured:
Assay type in all cases: cell-based
S. aureus [1] = assay: Screening of compounds for growth inhibition of S. aureus at 16 μg/mL (OD600); conditions: compound at 16 μg/mL, 24 hours, compared to DMSO control
Experimental: Library compounds and analogs of F6 were dissolved in DMSO at 10 mg/mL. S. aureus was cultured in Mueller Hinton Broth to early exponential phase at which point culture aliquots were incubated with compounds at 16 μg/mL or DMSO in duplicates. The culture was continued at 37° C. for 24 hours. Aliquots (100 μL) of the cultures were dispensed into clear 96 well microtiter plates and OD600 was recorded. Percent normalized OD600 was obtained by using the equation [formula] wherein for a given compound, X is the OD600 of culture with the compound, Xo is that of media only and XT is the OD600 of the DMSO control.

[2] = system: VRE (E. faecalis) ATCC 51575; assay: MIC, broth microdilution; conditions: VRE (E. faecalis) ATCC 51575; read-out: MIC
Experimental: (§1) Bacteria were cultured in cation-adjusted Mueller Hinton Broth (for strains in Tables 1 and 4) or Brain Heart Infusion broth (for Enterococcus faecium) or Tryptic Soy Broth (all other bacteria) in a 96-well plate at 37° C. for at least 20 hours. The MIC was classified as the lowest concentration where no visual growth of bacteria was observed. The minimum bactericidal concentration (MBC) was tested by spotting 4 μL from wells with no growth onto Tryptic Soy Agar (TSA) plates. Plates were incubated at 37° C. for at least 18 hours before recording the MBC.

E. faecalis ATCC 29212 = assay: MIC, broth microdilution; conditions: Enterococcus faecalis, ATCC29212; E. faecalis ATCC 29212; read-out: MIC
Experimental: as §1

[3] = system: L. monocytogenes ATCC 19115; assay: MIC, broth microdilution; conditions: Listeria monocytogenes, ATCC19115; L. monocytogenes ATCC 19115; read-out: MIC
Experimental: as §1

S. aureus ATCC 25923 = assay: MIC, broth microdilution; conditions: Staphylococcus aureus, ATCC25923; S. aureus ATCC 25923; read-out: MIC
Experimental: as §1

MRSA ATCC 33592 = assay: MIC, broth microdilution; conditions: Staphylococcus aureus; MRSA ATCC 33592; read-out: MIC
Experimental: as §1

[4] = system: C. difficile NR-32904 (P30); assay: Clostridium difficile inhibition analysis
[5] = system: C. difficile NR-32891 (P13); assay: Clostridium difficile inhibition analysis
[6] = system: C. difficile NR-13435 (isolate 9); assay: Clostridium difficile inhibition analysis
[7] = system: C. difficile NR-13432 (isolate 6); assay: Clostridium difficile inhibition analysis
[8] = system: C. difficile NR-32895 (P19); assay: Clostridium difficile inhibition analysis
[9] = system: Clostridium difficile ATCC BAA 1801; assay: Clostridium difficile inhibition analysis
[10] = system: C. difficile NR-32883 (P2); assay: Clostridium difficile inhibition analysis
S. aureus [11] = assay: MIC (Table 5, strain not given); conditions: Staphylococcus aureus; S. aureus (Table 5)
Experimental: as §1

[12] = system: Clostridium difficile ATCC 9689; assay: Clostridium difficile inhibition analysis; conditions: Table 6, ATCC 9689
[13] = system: Clostridium difficile ATCC 43255; assay: Clostridium difficile inhibition analysis; conditions: Table 6, ATCC 43255

With CC1CCCCN1S(=O)(=O)c1ccc(C(=O)Nc2nnc(-c3cccs3)o2)cc1 (stereo not drawn) [Compound F5] the “inhibition of growth of S. aureus” value (S. aureus [1]) was “significantly inhibited the growth”, the MIC [2] was 16 µg/mL (≈ 37 µM) and the MIC (E. faecalis ATCC 29212) was 16 µg/mL (≈ 37 µM). For the same compound, the MIC [3] was 16 µg/mL (≈ 37 µM), the MIC (S. aureus ATCC 25923) was 8 µg/mL (≈ 18.5 µM) and the MIC (MRSA ATCC 33592) was 8 µg/mL (≈ 18.5 µM).
In the case of CC1CC(C)CN(S(=O)(=O)c2ccc(C(=O)Nc3nnc(-c4ccc(Cl)cc4)o3)cc2)C1 (stereo not drawn) [Compound F6-5, N-(5-(4-Chlorophenyl)-1,3,4-oxadiazol-2-yl)-4-((3,5-dimethylpiperidin-1-yl)sulfonyl)benzamide], the “inhibition of growth of S. aureus” value (S. aureus [1]) is reported as “active”, the MIC [2] is reported as 2 µg/mL (≈ 4.21 µM) and the MIC (E. faecalis ATCC 29212) is reported as 4 µg/mL (≈ 8.42 µM). The MIC [3] was 2 µg/mL (≈ 4.21 µM), the MIC (S. aureus ATCC 25923) was 2 µg/mL (≈ 4.21 µM) and the MIC (MRSA ATCC 33592) was 1 µg/mL (≈ 2.11 µM).
With COc1cccc(-c2nnc(NC(=O)c3ccc(S(=O)(=O)N(C)CC4CCCO4)cc3)o2)c1 (stereo not drawn) [Compound G8] the “inhibition of growth of S. aureus” value (S. aureus [1]) was “significantly inhibited the growth”, the MIC [2] was 32 µg/mL (≈ 67.7 µM) and the MIC (E. faecalis ATCC 29212) was 32 µg/mL (≈ 67.7 µM). It also gave an MIC [3] of 32 µg/mL (≈ 67.7 µM), an MIC (S. aureus ATCC 25923) of 32 µg/mL (≈ 67.7 µM) and an MIC (MRSA ATCC 33592) of 32 µg/mL (≈ 67.7 µM).
Compound CC1CC(C)CN(S(=O)(=O)c2cncc(C(=O)Nc3nnc(-c4ccc(C(F)(F)F)cc4)o3)c2)C1 (stereo not drawn) [HSGN 216, 5-((3,5-dimethylpiperidin-1-yl)sulfonyl)-N-(5-(4-(trifluoromethyl)phenyl)-1,3,4-oxadiazol-2-yl)nicotinamide] has an Antibacterial activity ([4]; Table 7, C. difficile NR-32904 (P30)) of 0.5, an Antibacterial activity ([5]; Table 7, C. difficile NR-32891 (P13)) of 0.5 and an Antibacterial activity ([6]; Table 7, C. difficile NR-13435 (isolate 9)) of 0.125. The Antibacterial activity ([7]; Table 7, C. difficile NR-13432 (isolate 6)) was 0.125, the Antibacterial activity ([8]; Table 7, C. difficile NR-32895 (P19)) was 0.125 and the Antibacterial activity ([9]; Table 7, C. difficile ATCC BAA 1801) was 0.25. For the same compound, the Antibacterial activity ([10]; Table 7, C. difficile NR-32883 (P2)) was 0.06.
O=C(Nc1nnc(-c2ccc(C(F)(F)F)cc2)o1)c1ccc(S(=O)(=O)Nc2ccccc2)cc1 [HSGN-118, 4-(N-phenylsulfamoyl)-N-(5-(4-(trifluoromethyl)phenyl)-1,3,4-oxadiazol-2-yl)benzamide] showed an MIC (S. aureus [11]) of 4 µg/mL (≈ 8.19 µM), a Clostridium difficile inhibition ([4]; Table 6, P30) of 0.5 and a Clostridium difficile inhibition [12] of 0.5. The Clostridium difficile inhibition ([5]; Table 6, P13) was 1, the Clostridium difficile inhibition ([6]; Table 6, I9) was 0.5 and the MIC (MRSA ATCC 33592) was 4 µg/mL (≈ 8.19 µM). The Clostridium difficile inhibition ([7]; Table 6, I6) was 0.5, the Clostridium difficile inhibition ([8]; Table 6, P19) was 0.5 and the Clostridium difficile inhibition [13] was 0.5. The Clostridium difficile inhibition ([9]; Table 6, ATCC BAA 1801) was 0.5 and the Clostridium difficile inhibition ([10]; Table 6, P2) was 0.5.
